In PubChem BioAssay AID250 (DTP/NCI, 2004):
Where “and” joins values, the source holds several entries; their conditions need not be identical. Identical values can stand only once. Inconclusive results and toxic doses are left out. Rule for the calls: active = survival T/C of 150% or more; inactive = T/C below 125% in these data.

Test system: BDF1 mice, L1210 leukemia sc, survival T/C
Assay: NCI In Vivo Anticancer Drug Screen. Data for tumor model L1210 Leukemia (subcutaneous) in B6D2F1 (BDF1) mice
Details: higher = longer survival
Method in brief: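 Tumors were transplanted into mice, the animals were treated with compound, survival or tumor size was then measured, and treated values were divided by vehicle-control values.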

Measured: T/C

S=c1nc[nH]c2nc[nH]c12
inactive: endpoint: mean survival time, dose: 60.0 mg/kg/injection, schedule: Q01DX001 (ip), vehicle: saline 106 % of control | endpoint: mean survival time, dose: 90.0 mg/kg/injection, schedule: Q01DX001 (ip), vehicle: saline 110 % of control | endpoint: mean survival time, dose: 120.0 mg/kg/injection, schedule: Q01DX001 (ip), vehicle: saline 110 % of control | endpoint: mean survival time, dose: 240.0 mg/kg/injection, schedule: Q01DX001 (ip), vehicle: saline 116 % of control | endpoint: median survival time, dose: 0.65 mg/kg/injection, schedule: Q02DX Z (sc), vehicle: other 116 % of control | endpoint: median survival time, dose: 5.0 mg/kg/injection, schedule: Q01DX009 (sc), vehicle: other 109 % of control | endpoint: median survival time, dose: 5.0 mg/kg/injection, schedule: Q## X Z (sc), vehicle: other 105 % of control | endpoint: median survival time, dose: 10.0 mg/kg/injection, schedule: Q01DX009 (sc), vehicle: other 113 % of control | endpoint: median survival time, dose: 10.0 mg/kg/injection, schedule: Q01DX Z (sc), vehicle: methylcellulose (MC) 105 % of control | endpoint: median survival time, dose: 12.5 mg/kg/injection, schedule: Q01DX012 (ip), vehicle: other 122 % of control | endpoint: median survival time, dose: 14.0 mg/kg/injection, schedule: Q01DX Z (ip), vehicle: other 100 % of control | endpoint: median survival time, dose: 14.0 mg/kg/injection, schedule: Q01DX Z (oral), vehicle: methylcellulose (MC) 100 % of control and 104 % of control | endpoint: median survival time, dose: 14.0 mg/kg/injection, schedule: Q01DX Z (sc), vehicle: other 100 % of control (2×) and 110 % of control | endpoint: median survival time, dose: 14.0 mg/kg/injection, schedule: Q#A X Z (sc), vehicle: other 105 % of control and 115 % of control | endpoint: median survival time, dose: 17.0 mg/kg/injection, schedule: Q01DX Z (oral), vehicle: methylcellulose (MC) 95 % of control | endpoint: median survival time, dose: 17.0 mg/kg/injection, schedule: Q01DX Z (sc), vehicle: methylcellulose (MC) 100 % of control and 110 % of control | endpoint: median survival time, dose: 20.0 mg/kg/injection, schedule: Q01DX009 (sc), vehicle: other 124 % of control | endpoint: median survival time, dose: 23.0 mg/kg/injection, schedule: Q01DX Z (ip), vehicle: other 100 % of control | endpoint: median survival time, dose: 23.0 mg/kg/injection, schedule: Q01DX Z (oral), vehicle: methylcellulose (MC) 100 % of control | endpoint: median survival time, dose: 23.0 mg/kg/injection, schedule: Q01DX Z (sc), vehicle: methylcellulose (MC) 109 % of control | endpoint: median survival time, dose: 23.0 mg/kg/injection, schedule: Q02DX Z (sc), vehicle: other 94 % of control | endpoint: median survival time, dose: 23.0 mg/kg/injection, schedule: Q#A X Z (sc), vehicle: other 105 % of control | endpoint: median survival time, dose: 28.0 mg/kg/injection, schedule: Q01DX Z (oral), vehicle: methylcellulose (MC) 100 % of control | endpoint: median survival time, dose: 28.0 mg/kg/injection, schedule: Q01DX Z (sc), vehicle: methylcellulose (MC) 109 % of control | endpoint: median survival time, dose: 28.0 mg/kg/injection, schedule: Q01DX Z (sc), vehicle: other 110 % of control | endpoint: median survival time, dose: 38.9 mg/kg/injection, schedule: Q01DX Z (sc), vehicle: other 100 % of control and 105 % of control | endpoint: median survival time, dose: 39.0 mg/kg/injection, schedule: Q01DX001 (sc), vehicle: other 105 % of control | endpoint: median survival time, dose: 39.0 mg/kg/injection, schedule: Q01DX Z (ip), vehicle: other 110 % of control | endpoint: median survival time, dose: 39.0 mg/kg/injection, schedule: Q01DX Z (oral), vehicle: methylcellulose (MC) 104 % of control | endpoint: median survival time, dose: 39.0 mg/kg/injection, schedule: Q02DX Z (sc), vehicle: other 105 % of control | endpoint: median survival time, dose: 39.0 mg/kg/injection, schedule: Q07DX Z (sc), vehicle: other 105 % of control | endpoint: median survival time, dose: 39.0 mg/kg/injection, schedule: Q## X Z (sc), vehicle: other 100 % of control | endpoint: median survival time, dose: 39.0 mg/kg/injection, schedule: Q#A X Z (sc), vehicle: other 110 % of control | endpoint: median survival time, dose: 47.0 mg/kg/injection, schedule: Q01DX Z (oral), vehicle: methylcellulose (MC) 104 % of control | endpoint: median survival time, dose: 47.0 mg/kg/injection, schedule: Q01DX Z (sc), vehicle: other 110 % of control | endpoint: median survival time, dose: 60.0 mg/kg/injection, schedule: Q01DX001 (ip), vehicle: saline 100 % of control | endpoint: median survival time, dose: 65.0 mg/kg/injection, schedule: Q01DX001 (sc), vehicle: other 105 % of control and 115 % of control | endpoint: median survival time, dose: 65.0 mg/kg/injection, schedule: Q01DX Z (oral), vehicle: methylcellulose (MC) 104 % of control and 115 % of control | endpoint: median survival time, dose: 65.0 mg/kg/injection, schedule: Q02DX Z (sc), vehicle: other 105 % of control and 115 % of control | endpoint: median survival time, dose: 65.0 mg/kg/injection, schedule: Q07DX Z (sc), vehicle: other 105 % of control and 115 % of control | endpoint: median survival time, dose: 65.0 mg/kg/injection, schedule: Q## X Z (sc), vehicle: other 100 % of control | endpoint: median survival time, dose: 78.0 mg/kg/injection, schedule: Q01DX Z (oral), vehicle: methylcellulose (MC) 113 % of control | endpoint: median survival time, dose: 90.0 mg/kg/injection, schedule: Q01DX001 (ip), vehicle: saline 110 % of control | endpoint: median survival time, dose: 108.0 mg/kg/injection, schedule: Q01DX001 (sc), vehicle: other 115 % of control | endpoint: median survival time, dose: 108.0 mg/kg/injection, schedule: Q01DX Z (oral), vehicle: methylcellulose (MC) 105 % of control and 118 % of control | endpoint: median survival time, dose: 108.0 mg/kg/injection, schedule: Q07DX Z (sc), vehicle: other 115 % of control | endpoint: median survival time, dose: 108.0 mg/kg/injection, schedule: Q## X Z (sc), vehicle: other 115 % of control | endpoint: median survival time, dose: 120.0 mg/kg/injection, schedule: Q01DX001 (ip), vehicle: saline 110 % of control | endpoint: median survival time, dose: 130.0 mg/kg/injection, schedule: Q01DX Z (sc), vehicle: methylcellulose (MC) 109 % of control | endpoint: median survival time, dose: 160.0 mg/kg/injection, schedule: Q01DX009 (sc), vehicle: other 102 % of control | endpoint: median survival time, dose: 180.0 mg/kg/injection, schedule: Q01DX001 (sc), vehicle: other 121 % of control | endpoint: median survival time, dose: 180.0 mg/kg/injection, schedule: Q07DX Z (sc), vehicle: other 121 % of control | endpoint: median survival time, dose: 200.0 mg/kg/injection, schedule: Q01DX012 (ip), vehicle: other 100 % of control | endpoint: median survival time, dose: 216.0 mg/kg/injection, schedule: Q01DX Z (oral), vehicle: methylcellulose (MC) 109 % of control | endpoint: median survival time, dose: 216.0 mg/kg/injection, schedule: Q01DX Z (sc), vehicle: methylcellulose (MC) 109 % of control | endpoint: median survival time, dose: 240.0 mg/kg/injection, schedule: Q01DX001 (ip), vehicle: saline 110 % of control | endpoint: median survival time, dose: 300.0 mg/kg/injection, schedule: Q01DX Z (sc), vehicle: methylcellulose (MC) 120 % of control | endpoint: median survival time, dose: 300.0 mg/kg/injection, schedule: Q07DX Z (sc), vehicle: other 121 % of control | endpoint: median survival time, dose: 360.0 mg/kg/injection, schedule: Q01DX Z (oral), vehicle: methylcellulose (MC) 122 % of control | endpoint: median survival time, dose: 500.0 mg/kg/injection, schedule: Q01DX Z (oral), vehicle: other 120 % of control
active: endpoint: median survival time, dose: 38.9 mg/kg/injection, schedule: Q01DX Z (sc), vehicle: methylcellulose (MC) 150 % of control | endpoint: median survival time, dose: 50.0 mg/kg/injection, schedule: Q01DX012 (ip), vehicle: other 155 % of control | endpoint: median survival time, dose: 64.8 mg/kg/injection, schedule: Q01DX Z (sc), vehicle: other 150 % of control | endpoint: median survival time, dose: 65.0 mg/kg/injection, schedule: Q01DX Z (sc), vehicle: methylcellulose (MC) 154 % of control | endpoint: median survival time, dose: 78.0 mg/kg/injection, schedule: Q01DX Z (sc), vehicle: other 155 % of control | endpoint: median survival time, dose: 80.0 mg/kg/injection, schedule: Q01DX009 (ip), vehicle: other 150 % of control | endpoint: median survival time, dose: 80.0 mg/kg/injection, schedule: Q01DX009 (sc), vehicle: other 155 % of control | endpoint: median survival time, dose: 108.0 mg/kg/injection, schedule: Q01DX Z (ip), vehicle: other 155 % of control | endpoint: median survival time, dose: 108.0 mg/kg/injection, schedule: Q02DX Z (sc), vehicle: other 152 % of control | endpoint: median survival time, dose: 130.0 mg/kg/injection, schedule: Q01DX Z (sc), vehicle: other 150 % of control | endpoint: median survival time, dose: 180.0 mg/kg/injection, schedule: Q01DX Z (oral), vehicle: methylcellulose (MC) 150 % of control | endpoint: median survival time, dose: 216.0 mg/kg/injection, schedule: Q01DX Z (sc), vehicle: other 150 % of control | endpoint: median survival time, dose: 300.0 mg/kg/injection, schedule: Q01DX Z (oral), vehicle: methylcellulose (MC) 150 % of control and 154 % of control | endpoint: median survival time, dose: 300.0 mg/kg/injection, schedule: Q## X Z (sc), vehicle: other 157 % of control
